Data published in patent US10183047B2, “Chromium-containing compositions in combination with Phyllanthus emblica and shilajit having synergistic effects for improving endothelial function and cardiovascular health” (Natreon, Inc., priority 2014, dated 2019).
Marks after values point to notes of the source that are not given here.

Key:
Type in all cases: in vivo, human
lipid profile = assay: Lipid profile (TC, HDL-C, LDL-C, TG), metabolic syndrome subjects; settings: for HDL / LDL / TC / TG: MS; for HDL / LDL / TC / TG / LDL-C, mean percentage change: 400 mcg; for LDL-C, mean percentage change: mean percentage change after 12 weeks of treatment, Example 4; for HDL-C Post Tt / LDL-C Post Tt / Mean percentage change in HDL-C / Mean percentage change in Total Cholesterol / Mean percentage change in Triglycerides / Total Cholesterol Post Tt / Triglycerides Post Tt / HDL-C Pre Tt / LDL-C Pre Tt / Total Cholesterol Pre Tt / Triglycerides Pre Tt: metabolic syndrome subjects (Example 4), chromium products 400 mcg; for HDL-C Post Tt / LDL-C Post Tt / Mean percentage change in HDL-C / Mean percentage change in Total Cholesterol / Mean percentage change in Triglycerides / Total Cholesterol Post Tt / Triglycerides Post Tt: after 12 weeks of treatment; for HDL-C Pre Tt / LDL-C Pre Tt / Total Cholesterol Pre Tt / Triglycerides Pre Tt: pre-treatment
From the text: All the subjects had undergone complete physical examination, safety lab evaluations at baseline and at the end of the treatment. Samples were collected after an overnight fast of 12 hrs after the last dose of medication for determination of hemoglobin, glycosylated hemoglobin (HbA1c), blood urea, serum creatinine, liver function, lipid profile (Total cholesterol, High density lipoprotein cholesterol (HDL-C), low density lipoprotein cholesterol (LDL-C) using appropriate standard techniques.
Patients included in the study, were of either gender, aged 30-68 years, having endothelial dysfunction defined as ≤6% change in reflection index (RI) on post salbutamol challenge test and central obesity as defined by The International Diabetes Federation guidelines, dated 2006, and any two of the following conditions: […]
(§1) Subjects were reviewed for follow up at 4 weeks, 8 and 12 weeks of therapy. At each visit they were evaluated for efficacy and safety. Pharmacodynamic evaluation for endothelial function was conducted at baseline and end of treatment. Blood samples were collected for evaluation of biomarkers before and at end of treatment. Safety lab investigations for hematological, hepatic and renal biochemical parameters were conducted before and at the end of the study and also as and when required (in case of any adverse drug reaction (ADR)). Subjects were enquired for the presence of ADR and the same was recorded in the case report form. Compliance to therapy was assessed by pill count method.
Assessment of endothelial function, biomarkers, safety parameters and primary and secondary efficacy parameters and data analysis were performed as described under the study with type 2 diabetic subjects in Example 1.
(§2) When the results with Crominex® 3+ in the above two examples were highly significant, especially with the 400 mcg once daily dose in type 2 diabetics, two more clinical studies (EXAMPLES 3 & 4) were conducted at the same institute, following the same methodology as described earlier, on the individual components of Crominex® 3+, i.e., chromium chloride and Phyllanthus emblica+Shilajit, and other chromium supplements available in the market, i.e., chromium picolinate, chromium polynicotinate and chromium dinicocysteinate, in type 2 diabetics as well as in subjects with metabolic syndrome symptoms.

fasting plasma glucose = assay: Fasting plasma glucose, metabolic syndrome subjects; settings: for Fasting Glucose: MS, 400 mcg; for Fasting Plasma Glucose Post Tt / Fasting Plasma Glucose Pre Tt: metabolic syndrome subjects (Example 4), chromium products 400 mcg; for Fasting Plasma Glucose Post Tt: after 12 weeks of treatment; for Fasting Plasma Glucose Pre Tt: pre-treatment
From the text: Patients included in the study, were of either gender, aged 30-68 years, having endothelial dysfunction defined as ≤6% change in reflection index (RI) on post salbutamol challenge test and central obesity as defined by The International Diabetes Federation guidelines, dated 2006, and any two of the following conditions:
After screening, all the eligible subjects were randomized to receive either one of the three treatments orally for duration of 12 weeks: group 1—one capsule of Crominex®3+ 200 mcg once daily; group 2—one capsule 400 mcg once daily; group 3—one capsule of Placebo once daily.
as §1, §2

[1] = Blood pressure, type 2 diabetics; settings: type 2 diabetics (Example 3), chromium products 400 mcg; for Diastolic blood pressure Post Tt / Systolic blood pressure Post Tt: post-treatment, 12 weeks; for Diastolic blood pressure Pre Tt / Systolic blood pressure Pre Tt: pre-treatment
Protocol: as §2

endothelial function = assay: Reflection index (RI), salbutamol challenge test with digital volume plethysmography, type 2 diabetics; settings: for RI: DM, 400 mcg; for Absolute change of RI / Reflection index (%) Post Tt / Reflection index (%) Pre Tt: type 2 diabetics (Example 3), chromium products 400 mcg; for Absolute change of RI: 12 week treatment; for Reflection index (%) Post Tt: post-treatment, 12 weeks; for Reflection index (%) Pre Tt: pre-treatment
Protocol: The present clinical study is a prospective, randomized, double blind, placebo-controlled study. Patients of either sex, aged 30-65 years, fasting plasma glucose of 110-126 mg/dl, a glycosylated hemoglobin (HbA1c) between 6.5% and 8% and taking stable dose of anti-diabetic treatment (metformin 1500-2000 mg/day) for the past 8 weeks prior to the screening visit; and having endothelial dysfunction defined as ≤6% change in reflection index (RI) on post salbutamol challenge test were included in the study. Patients with severe uncontrolled hyperglyceamia, uncontrolled hypertension, cardiac arrhythmia, impaired hepatic or renal function, history of malignancy or stroke, smoking, chronic alcoholism, any other serious disease requiring active treatment and treatment with any other herbal supplements, were excluded from the study.
After screening, all the eligible subjects were randomized to receive either one of the three treatments orally for duration of 12 weeks—Group1—one capsule of Crominex®3+, 200 mcg once daily, Group 2—one capsule Crominex®3+, 400 mcg once daily; Group 3—one capsule of placebo once daily.
as §1, with “Subjects were required for follow” for “Subjects were reviewed for follow”, “up at 4, 8 and” for “up at 4 weeks, 8 and”, “conducted at every visit. Blood samples” for “conducted at baseline and end of treatment. Blood samples”, “and at the end of” for “and at end of”, “drug reaction (ADR). Subjects were” for “drug reaction (ADR)). Subjects were”
Procedure for Assessment of Endothelial Function by Determination of Reflection Index (RI).
A salbutamol (albuterol) challenge test employing digital volume plethysmography was used to assess endothelial function as reported by Chowienczyk et al., “Photoplethysmographic assessment of pulse wave reflection: blunted response to endothelium dependant beta 2-adrenergic vasodilation in type 2 diabetes mellitus,” J. Am. Coll. Cardiol. (1999 December) 34(7):2007-14; and Naidu, et al., “Comparison of two β2 adrenoceptor agonists by different routes of administration to assess human endothelial function,” Indian J. Pharmacol. (2007) 39:168-9. The patients were examined in supine position after 5 minutes of rest. A digital volume pulse (DVP) was obtained using a photo plethysmograph (Pulse Trace PCA2, PT200, Micro Medical, Gallingham, Kent, UK) transmitting infrared light at 940 nm, placed on the index finger of the right hand. The signal from the plethysmograph was digitized using a 12 bit analogue to digital converter with a sampling frequency of 100 Hz. DVP waveforms were recorded over 20 second period and the height of the late systolic/early diastolic portion of the DVP was expressed as a percentage of the amplitude of the DVP to yield the reflection index (RI), per the procedure described in detail by Millasseau et al., “Determination of age related increases in large artery stiffness by digital pulse contour analysis,” Clinical Science (2002) 103: 371-377. Three DVP recordings were taken, and measurements of reflection index (RI) were calculated and the mean value was determined. Patients were then administered 400 μg of salbutamol by inhalation. After 15 minutes three measurements of RI were obtained again and the difference in mean RI before and after administration of salbutamol was used for assessing endothelial function. A change of ≤6% in RI post-salbutamol was considered as endothelial dysfunction.
The primary efficacy measure was a change in endothelial dysfunction as assessed by more than 6% change in reflection index at 12 weeks. […]

| Compound | HDL (lipid profile) | LDL (lipid profile) | TC (lipid profile) | TG (lipid profile) | HDL-C Post Tt (lipid profile) | LDL-C Post Tt (lipid profile) | Mean percentage change in HDL-C (lipid profile) | Mean percentage change in Total Cholesterol (lipid profile) | Mean percentage change in Triglycerides (lipid profile) | Total Cholesterol Post Tt (lipid profile) | Triglycerides Post Tt (lipid profile) | HDL-C Pre Tt (lipid profile) | LDL-C Pre Tt (lipid profile) | Total Cholesterol Pre Tt (lipid profile) | Triglycerides Pre Tt (lipid profile) | Fasting Glucose (fasting plasma glucose) | Fasting Plasma Glucose Post Tt (fasting plasma glucose) | Fasting Plasma Glucose Pre Tt (fasting plasma glucose) | Diastolic blood pressure Post Tt [1] | Systolic blood pressure Post Tt [1] | further results |
| --- | --- | --- | --- | --- | --- | --- | --- | --- | --- | --- | --- | --- | --- | --- | --- | --- | --- | --- | --- | --- | --- |
| chromium dinicocysteinate | −0.71% | 2.11% | 1.4% | 1.04% | 36.61 ± 5.67 NS mg/dl | 113.64 ± 14.96 mg/dL | −0.71 ± 3.95% | 1.40 ± 1.03% | 1.04 ± 1.06% | 184.50 ± 12.49 mg/dL | 171.22 ± 6.92 mg/dL | 36.83 ± 5.22 mg/dL | 111.22 ± 14.34 mg/dL | 181.94 ± 12.10 mg/dL | 169.44 ± 6.24 mg/dL | −2.18% | 99.50 ± 17.60 NS | 101.72 ± 21.41 | 76.78 ± 1.22 NS mmHg | 118.11 ± 2.11 NS mmHg | LDL-C, mean percentage change (lipid profile): 2.11%; Diastolic blood pressure Pre Tt [1]: 77.00 ± 1.41 mmHg; Systolic blood pressure Pre Tt [1]: 118.89 ± 3.08 mmHg; RI (endothelial function): −1.03%; Absolute change of RI (endothelial function): −1.03 + 0.34 #NS %; Reflection index (%) Post Tt (endothelial function): −3.82 ± 0.74 %; Reflection index (%) Pre Tt (endothelial function): −4.85 ± 0.74^ % |
| chromium picolinate | 2.1% | −2.19% | −1.18% | −1.07% | 37.84 ± 4.45@ mg/dl | 111.55 ± 12.58 mg/dL | 2.10 ± 2.84% | −1.18 ± 0.90% | −1.07 ± 1.20% | 182.84 ± 12.60 mg/dL | 167.26 ± 10.71 mg/dL | 37.11 ± 4.32 mg/dL | 114.13 ± 12.80 mg/dL | 185.05 ± 13.03 mg/dL | 169.11 ± 11.02 mg/dL | −4.27% | 96.63 ± 13.11 @ | 100.95 ± 14.05 ^ | 76.32 ± 2.14 NS mmHg | 117.47 ± 2.82 NS mmHg | LDL-C, mean percentage change (lipid profile): -2.19%; Diastolic blood pressure Pre Tt [1]: 76.95 ± 2.70 mmHg; Systolic blood pressure Pre Tt [1]: 118.63 ± 2.75 mmHg; RI (endothelial function): −2.2%; Absolute change of RI (endothelial function): −2.22 + 0.89 # %; Reflection index (%) Post Tt (endothelial function): −2.46 ± 0.90 %; Reflection index (%) Pre Tt (endothelial function): −4.68 ± 1.24^ % |
| chromium polynicotinate | −1.55% | 1.86% | 0.95% | 0.83% | 36.20 ± 5.15 NS mg/dl | 111.95 ± 12.95 mg/dL | −1.55 ± 4.17% | 0.95 ± 1.33% | 0.83 ± 1.22% | 182.75 ± 14.03 mg/dL | 173.00 ± 9.33 mg/dL | 36.85 ± 5.48 mg/dL | 109.88 ± 12.76 mg/dL | 181.05 ± 13.98 mg/dL | 171.60 ± 9.43 mg/dL | −4.14% | 95.95 ± 13.32 NS | 100.10 ± 14.00 | 79.7 ± 2.85 NS mmHg | 124.1 ± 4.88 NS mmHg | LDL-C, mean percentage change (lipid profile): 1.86%; Diastolic blood pressure Pre Tt [1]: 81.2 ± 3.07 mmHg; Systolic blood pressure Pre Tt [1]: 125.9 ± 5.17 mmHg; RI (endothelial function): −1.04%; Absolute change of RI (endothelial function): −1.04 + 0.39 #NS %; Reflection index (%) Post Tt (endothelial function): −3.71 ± 1.1 $ %; Reflection index (%) Pre Tt (endothelial function): −4.3 ± 1.2% |
| O.O.O.O.O.O.[Cl][Cr]([Cl])[Cl] [Chromium chloride, Chromium chloride (CrCl3.6H2O)] | −1.08% | 0.79% | 0.49% | 0.92% | 36.79 ± 5.14 NS mg/dl | 117.37 ± 9.13 NS mg/dl | −1.08 ± 3.45% | 0.49 ± 1.30% | 0.92 ± 1.43% | 189.21 ± 10.80 NS mg/dl | 175.26 ± 9.70 mg/dL | 37.21 ± 5.16 mg/dL | 116.42 ± 9.75 mg/dL | 188.37 ± 11.78 mg/dL | 173.68 ± 9.70 mg/dL | −2.7% | 101.32 ± 16.51 NS | 104.16 ± 14.92 | 77.16 ± 1.68 NS mmHg | 117.26 ± 1.52 NS mmHg | Diastolic blood pressure Pre Tt [1]: 77.05 ± 1.68 mmHg; Systolic blood pressure Pre Tt [1]: 117.37 ± 2.50 mmHg; RI (endothelial function): −0.57%; Absolute change of RI (endothelial function): −0.57 + 0.36 #NS %; Reflection index (%) Post Tt (endothelial function): −3.22 ± 0.85 %; Reflection index (%) Pre Tt (endothelial function): −3.79 ± 0.82^ % |
